According to ChEMBL document CHEMBL2169754, “Imidazo[1,2-a]pyridines That Directly Interact with Hepatitis C NS4B: Initial Preclinical Characterization” (ACS Med Chem Lett, 2012):

Experiments:
[1] = tested on: Hepatitis C virus; assay: Displacement of [3H]-3-(1-(3-chloro-6-isopropyl-8-(trifluoromethyl)imidazo[1,2-a]pyridine-2-carbonyl)piperidin-4-yl)oxazolidin-2-one from HCV genotype 1b His6-tagged NS4B expressed in baculovirus infected Sf9 cells after overnight incubation; design: species or system Hepatitis C virus subtype 1b
[2] = tested on: Hepatitis C virus; assay: Antiviral activity against wild type HCV genotype 1b infected in human HuH7 cells after 48 hrs by luciferase reporter gene assay; type: functional, organism-based, Hepacivirus hominis; conditions: Huh-7, 48 h
[3] = Solubility of the compound; type: physicochemical
[4] = tested on: Hepatitis C virus; assay: Antiviral activity against wild type HCV genotype 1a infected in human HuH7 cells after 48 hrs by luciferase reporter gene assay; type: functional, organism-based, Hepacivirus hominis; conditions: subtype 1a, Huh-7, 48 h
[5] = tested on: Hepatocyte; assay: Drug metabolism in human hepatocytes assessed as pendant cyclohexyl oxidation; type: ADME, cell-based
[6] = tested on: Hepatocyte; assay: Drug metabolism in rat hepatocytes assessed as pendant cyclohexyl oxidation; type: ADME, cell-based

| SMILES | IC50 [1] [nM] | EC50 [2] [nM] | solubility [3] [µM] | EC50 [4] [nM] | Drug metabolism [5] | Drug metabolism [6] |
| --- | --- | --- | --- | --- | --- | --- |
| O=C(c1nc2c(C(F)(F)F)cc(-c3ccoc3)cn2c1Cl)N1CCN([C@H]2CC[C@@H](O)CC2)C(=O)C1 | 250 | 300 | > 500 | 150 |  |  |
| O=C(c1nc2c(C(F)(F)F)cc(-c3ccoc3)cn2c1Cl)N1CCC(c2cccs2)CC1 | 5.3 | 110 |  | 220 |  |  |
| O=C(c1nc2c(C(F)(F)F)cc(-c3ccoc3)cn2c1Cl)N1CCC(N2CCCC2=O)CC1 | 170 | 90 | > 500 | 260 |  |  |
| CN1CCN(C(=O)c2nc3c(C(F)(F)F)cc(-c4ccoc4)cn3c2Cl)CC1=O | 1200 | 36000 | > 500 | 18000 |  |  |
| O=C(NCc1cccs1)c1cc2nc(-c3ccco3)cc(C(F)(F)Cl)n2n1 [ANGUIZOLE] | 22 | 450 |  | 740 |  |  |
| O=C(c1nc2c(C(F)(F)F)cc(-c3ccoc3)cn2c1Cl)N1CCN(C2CCCCC2)C(=O)C1 | 5.6 | 3.5 | > 500 | 11 | Active | Active |

Further lines, results first:

| IC50 [1] [nM] | EC50 [2] [nM] | solubility [3] [µM] | EC50 [4] [nM] | Drug metabolism [5] | Drug metabolism [6] | SMILES |
| --- | --- | --- | --- | --- | --- | --- |
| 12 | 67 | < 15 | 770 |  |  | O=C(c1nc2c(C(F)(F)F)cc(-c3ccoc3)cn2c1Cl)N1CCC(c2cccs2)C1 (racemic) |
| 24 | 160 |  | 430 |  |  | O=C(c1nc2c(C(F)(F)F)cc(-c3ccoc3)cn2c1Cl)N1CCN(c2ccccc2)C(=O)C1 |
| > 50000 | > 50000 | > 500 | > 50000 |  |  | O=C(c1nc2c(C(F)(F)F)cc(-c3ccoc3)cn2c1Cl)N1CCC(N2CCCC2)CC1 |
| 5.4 | 78 | < 15 | 680 |  |  | O=C(c1nc2c(C(F)(F)F)cc(-c3ccoc3)cn2c1Cl)N1CCC(c2ccccc2F)C1 (racemic) |
